Columns and labels:
MDA-MB-231 xenograft = assay: Drug biodistribution in MDA-MB-231 xenograft model; format: in vivo, mice; details: after 40scFv-ILs-DTXp3 50 mpk; tumor vs liver and spleen
Excerpt: Each group consists of 3 animals. “Mpk” stand for mg of the drug per kg animal body weight.
The animals received one tail vein injection of 40scFv-ILs-DTXp3 at 50 mpk or free docetaxel at 10 mpk. At each time point, animals were sacrificed and tumor, liver and spleen were collected and flash frozen.
All tissue samples were thawed, weighed, and then mechanically homogenized using a Bullet Blender (Next Advance, Inc., Averill Park, N.Y.) in a solution of 40% acetonitrile containing 0.25% trifluoroacetic acid. The acid was included in the solvent for pH stabilization of Compound 3. […]
The homogenized tissue samples were analyzed utilizing two bioanalytical assays to individually measure Compound 3 and DTX. […] The analytes, Compound 3 and DTX, were detected in both assays by multiple reaction monitoring (MRM) in positive ion mode using electrospray ionization. The homogenized tissue samples were quantitated for Compound 3 and DTX using extracted calibration standards and quality control (QC) samples prepared by spiking Compound 3 or DTX into an acidified plasma matrix, which is a 3:2 mixture of female CD-1 lithium heparinized mouse plasma (Bioreclamation, LLC, Westbury, N.Y.) and 200 mM sodium phosphate buffer (pH 2.5). […]

[1] = Hydrolysis in buffer at 37° C., % DTX formation by HPLC; format: physicochemical
Protocol: A volume of a 10 mg/mL solution of drug in DMSO as needed to provide the desired concentration (typically 16 p1 to yield a 80 μg/mL solution) is placed in a glass test tube or 4 mL vial. Additional DMSO may also be added (e.g. 64 μL when using 164 of drug solution) to yield a final total DMSO concentration of 4%. The DMSO solutions are mixed by brief vortexing, and then 2 mL (20 mM) HEPES buffer for pH 7.5 and 2 mL of (20 mM) phosphate buffer for pH 2.5 is added and the mixture is vortexed again. The initial pH may be adjusted by addition of HCl or NaOH.
Then 100 μLaliquots of the buffer solution of drug are transferred into HPLC vials and incubated in a 37° C. water bath. The remaining solution is also incubated at 37° C. in 4 mL vials for monitoring of pH.
At each time point 900 μL of 0.1% trifluoroacetic acid (TFA) in acetonitrile (ACN) is added to the HPLC vial and the contents are vortexed. The vials are then placed in an autosampler rack at 4° C. for HPLC analysis.
Time zero data points are typically obtained from a solution of 4 μL DMSO stock in 5 mL of 0.1% TFA/ACN (8 μg/mL).
HPLC analysis is performed on a SYNERGI 4 micron Polar RP-80A, 250×4.6 mm column, using a flow rate of 1 mL/min, a 50 μL injection volume, column temperature of 25° C. and with UV detection at 227 nm. Most compounds are analyzed using a 13 min gradient (Method A) from 30 to 66% acetonitrile in aqueous 0.1% TFA, followed by a 1 min gradient back to 30% and a hold at 30% for 6 minutes. If the retention time is too long for this method, a 20 min gradient (Method B) of 30 to 90% acetonitrile, followed by a 1 min return to 30% and held for 9 min at 30% is employed.
The extent of hydrolysis is reported in Table 7 below as the % DTX formation based on relative peak areas.

[2] = Chronic tolerability studies; details: in vivo
Protocol: Chronic tolerability studies were performed in rodent and non-rodent models with focus on overall animal health, as well as hematologic toxicities.

[3] = Coagulation parameters (PT, APTT, fibrinogen) in rats; format: in vivo, Sprague Dawley rats; details: 10 mg/kg, end of study (Day 30), vs vehicle control
Protocol: Blood samples collected at end of study from all the tested groups were analyzed for coagulation-related parameters including: Prothrombin time (PT), activated partial thromboplastin time (APTT) and fibrinogen levels.

SUM-159 xenograft = details: mouse, in vivo
Excerpt: The animals received four tail vein injections, at the intervals of 7 days.
The tumor progression was monitored by palpation and caliper measurements of the tumors along the largest (length) and smallest (width) axis twice a week.

[4] = In vivo tolerability in Swiss Webster mice; details: IV
Excerpt: Swiss Webster homozygous female mice (5-6 week old) were obtained from Charles River Laboratory. The animals received tail vein injections, at the intervals of 7 days of tested compound at tested dose (Table 5: Experimental design).
Animal weight and performance status score were monitored based on clinical observation of the mice three to four times a week (clinical observations table). Animals that experience severe toxicity are euthanized according to IACUC protocol. If more than 30% of the mice experience severe toxicity the tested dose is deemed not tolerated.

Compound | conversion of prodrug to docetaxel in tissue (docetaxel/Compound 3 ratio) (MDA-MB-231 xenograft) | Percentage of Hydrolysis (% DTX formation) ([1]; pH 2.5, 0 h) [%] | Percentage of Hydrolysis (% DTX formation) ([1]; pH 2.5, 5 h) [%] | Percentage of Hydrolysis (% DTX formation) ([1]; pH 2.5, 24 h) [%] | Percentage of Hydrolysis (% DTX formation) ([1]; pH 2.5, 48 h) [%] | Percentage of Hydrolysis (% DTX formation) ([1]; pH 2.5, 96 h) [%] | Percentage of Hydrolysis (% DTX formation) ([1]; pH 7.5, 0 h) [%] | Percentage of Hydrolysis (% DTX formation) ([1]; pH 7.5, 5 h) [%] | Percentage of Hydrolysis (% DTX formation) ([1]; pH 7.5, 24 h) [%] | Percentage of Hydrolysis (% DTX formation) ([1]; pH 7.5, 48 h) [%] | Percentage of Hydrolysis (% DTX formation) ([1]; pH 7.5, 96 h) [%] | MTD [2] [mg/kg] | Activated partial thromboplastin time (APTT) [3] | treatment related toxicity (body weight) (SUM-159 xenograft) | maximum tolerated dose for weekly treatment [4] [mpk]
CCN(CC)CCCC(=O)O[C@@H](C(=O)O[C@H]1C[C@@]2(O)[C@@H](OC(=O)c3ccccc3)[C@@H]3[C@]4(OC(C)=O)CO[C@@H]4C[C@H](O)[C@@]3(C)C(=O)[C@H](O)C(=C1C)C2(C)C)[C@@H](NC(=O)OC(C)(C)C)c1ccccc1.Cl [Compound 3, 2′-O-(4-Diethylaminobutanoyl) DTX Hydrochloride] | sustained conversion of the Compound 3 to docetaxel at the tumor site | 0.00 | 0.00 | 0.00 | 0.00 | 0 | 0.00 | 45.76 | 100.00 | 100.00 | 100 | – | – | – | –
CC(=O)O[C@@]12CO[C@@H]1C[C@H](O)[C@@]1(C)C(=O)[C@H](O)C3=C(C)[C@@H](OC(=O)[C@H](OC(=O)CCCN(C)C)[C@@H](NC(=O)OC(C)(C)C)c4ccccc4)C[C@@](O)([C@@H](OC(=O)c4ccccc4)[C@H]21)C3(C)C.Cl [Compound 4, 2′-O-[4-(N,N-Dimethylamino)butanoyl] DTX Hydrochloride] | – | 0.00 | 0.00 | 0.00 | 0.00 | 0 | 0.00 | 76.07 | 100.00 | 100.00 | 100 | – | – | – | –
CC(=O)O[C@@]12CO[C@@H]1C[C@H](O)[C@@]1(C)C(=O)[C@H](O)C3=C(C)[C@@H](OC(=O)[C@H](O)[C@@H](NC(=O)OC(C)(C)C)c4ccccc4)C[C@@](O)([C@@H](OC(=O)c4ccccc4)[C@H]21)C3(C)C [docetaxel] | – | – | – | – | – | – | – | – | – | – | – | 20 | shortened | severe | 20
